From PMC8253220, “Molecular design, synthesis and in vitro biological evaluation of thienopyrimidine–hydroxamic acids as chimeric kinase HDAC inhibitors: a challenging approach to combat cancer” (Journal of Enzyme Inhibition and Medicinal Chemistry, 2021)
Where “and” joins values, the source holds several entries; their conditions need not be identical. Equal entries are not always repeated.

Experiments:
EGFR = EGFR (Homo sapiens, UniProt P00533); experiment: In vitro EGFR tyrosine kinase inhibitory assay (Z'-LYTE, SelectScreen); format: biochemical; conditions: for inhibition at 10 µM: 10 µM single dose
EGFR, sequence (P00533 25-1210): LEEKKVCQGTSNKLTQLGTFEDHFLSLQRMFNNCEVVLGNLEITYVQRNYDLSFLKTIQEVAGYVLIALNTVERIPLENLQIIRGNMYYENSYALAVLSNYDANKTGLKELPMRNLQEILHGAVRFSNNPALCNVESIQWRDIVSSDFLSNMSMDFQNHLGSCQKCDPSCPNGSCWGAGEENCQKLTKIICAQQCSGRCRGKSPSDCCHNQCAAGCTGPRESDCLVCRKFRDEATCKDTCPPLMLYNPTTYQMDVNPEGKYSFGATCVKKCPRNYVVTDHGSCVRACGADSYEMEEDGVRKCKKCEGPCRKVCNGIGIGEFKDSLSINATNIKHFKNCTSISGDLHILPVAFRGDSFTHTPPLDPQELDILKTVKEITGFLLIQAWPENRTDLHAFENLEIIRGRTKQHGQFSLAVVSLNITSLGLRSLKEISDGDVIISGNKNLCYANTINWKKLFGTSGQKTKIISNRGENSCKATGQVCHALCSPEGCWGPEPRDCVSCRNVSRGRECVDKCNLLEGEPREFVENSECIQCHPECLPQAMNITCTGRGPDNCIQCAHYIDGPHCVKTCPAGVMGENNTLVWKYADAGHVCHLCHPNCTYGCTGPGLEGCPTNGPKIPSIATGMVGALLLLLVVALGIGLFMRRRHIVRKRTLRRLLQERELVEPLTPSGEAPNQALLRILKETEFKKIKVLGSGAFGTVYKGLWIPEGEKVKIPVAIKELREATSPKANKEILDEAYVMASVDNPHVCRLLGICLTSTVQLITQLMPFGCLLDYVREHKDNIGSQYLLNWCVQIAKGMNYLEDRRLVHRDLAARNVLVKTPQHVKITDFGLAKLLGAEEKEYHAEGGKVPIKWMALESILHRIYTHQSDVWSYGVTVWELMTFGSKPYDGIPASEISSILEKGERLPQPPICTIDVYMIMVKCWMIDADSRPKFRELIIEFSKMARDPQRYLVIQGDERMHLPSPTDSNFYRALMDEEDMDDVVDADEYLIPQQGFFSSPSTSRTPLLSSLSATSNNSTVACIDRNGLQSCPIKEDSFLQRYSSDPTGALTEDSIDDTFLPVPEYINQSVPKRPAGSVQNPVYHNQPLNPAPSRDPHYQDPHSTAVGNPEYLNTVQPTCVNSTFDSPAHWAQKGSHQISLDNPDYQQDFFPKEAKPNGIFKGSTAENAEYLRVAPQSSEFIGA
Experimental: The target compounds were evaluated for their in vitro inhibitory activities against EGFR, VEGFR-2, and HDAC6. The EGFR and VEGFR-2 inhibitory assays were performed at Thermo Fischer Scientific, Madison, WI, USA (SelectScreenServices@thermofisher.com). The HDAC inhibitory assays were performed at BPS Bioscience, San Diego, CA, USA (www.bpsbioscience.com). Initially, all of the synthesised target compounds were evaluated for their percent inhibitory activity against EGFR, VEGFR-2, and HDACs at 10 µM single dose concentration, in which their mean percent inhibition is summarised in (Figure 5, Tables 1 and [2]). Representative compounds were evaluated for their percent inhibitory activity against EGFR and VEGFR-2 at 6 different concentrations (0.1 nM, 1 nM, 10 nM, 100 nM, 1 µM, 10 µM) to subsequently calculate their IC50 values (Table 3). Additionally, all of the synthesised target compounds were submitted to the National Cancer Institute “NCI” Bethesda, Maryland, USA (www.dtp.nci.nih.gov), to evaluate theirs in vitro antiproliferative activities against NCI 60- cancer cell line panel.
In vitro enzyme inhibition determination for the synthesised compounds was carried out in Thermo Fischer Scientific, Madison, WI, USA (SelectScreenServices@thermofisher.com). The EGFR and VEGFR-2 tyrosine kinase % inhibitory activity at a single-dose concentration of 10 µM was performed initially then representative compounds were evaluated at single-dose concentrations of (0.1 nM, 1 nM, 10 nM, 100 nM, 1 µM) using ZYLTE technology. A fluorescence-based, coupled-enzyme format is employed in the biochemical assay and depends on the sensitivity of proteolytic cleavage to non-phosphorylated and phosphorylated peptides. Then IC50 values for selected compounds were determined by GraphPad Prism at Misr international university.

Hela nuclear extracts = experiment: Hela nuclear extract HDAC inhibitor assay (BPS Bioscience); format: biochemical; conditions: 10 µM
Experimental: The purpose of the study is to determine the effects of twenty compounds from Misr International University on the enzymatic activities of hela nuclear extracts using an in vitro […]
7a Solution 10mM DMSO 10 10 % DMSO in
7b Solution 10mM DMSO 10 10 % DMSO in
7d Solution 10mM DMSO 10 10 % DMSO in
2.3 Experimental Conditions
2.3.1 Enzymes and Substrates
Assay Catalog # Substrate
Hela Nuclear Exctract 50053 10 µM HDAC Substrate 3
For the hela nuclear extracts, hela cells were grown to 90 % confluency. Hela nuclear extracts were prepared from the Nuclear Extraction Kit from abcam (Catalog # ab113474). The final total protein concentration was calculated to be 2.4 µg/µl. From this, the hela nuclear extracts was diluted 20-fold in HDAC assay buffer and 5 µl of the dilution was added to a 50 µl reaction.
The compounds are dissolved in DMSO. A series of dilutions of the compounds were prepared with 10% DMSO in HDAC assay buffer and 5 µl of the dilution was added to a 50 µl reaction so that the final concentration of DMSO is 1 % in all of […]
The enzymatic reactions for the hela nuclear extract were conducted in duplicate at 37 °C for 60 minutes in a 50 µl mixture containing HDAC assay buffer, 5 µg BSA, an HDAC substrate (see 2.3.1), hela nuclear extract, and a test compound (see 2.2).
After enzymatic reactions, 50μl of 2 x HDAC Developer was added to each well for the hela nuclear extract and the plate was incubated at room temperature for an additional 15 […]
Fluorescence intensity was measured at an excitation of 360 nm and an emission of 460 nm using a Tecan Infinite M1000 microplate reader.
Hela nuclear extract activity assays were performed in duplicates at each concentration.
The fluorescent intensity data were analyzed using the computer software, Graphpad Prism. In the absence of the compound, the fluorescent intensity (Ft) in each data set was defined as 100% activity. In the absence of hela nuclear extract, the fluorescent intensity (Fb) in each data set was defined as 0% activity. The percent activity in the presence of each compound was calculated according to the following equation: %activity = (F-Fb)/(Ft-Fb), where F= the fluorescent intensity in the presence of the compound.
The values of percentage activity were plotted on a bar graph.

SF-295 = experiment: NCI one-dose screen; format: cell-based, human; conditions: CNS SF-295, 10 µM single dose
Experimental: (§1) All of the synthesised structures were selected and submitted to NCI based on computer modelling techniques and the degree of diversity of structures for the evaluation of their antiproliferative activity. The 20 synthesised compounds were selected with their respective NCI codes [NCS D-820157- NCS D-820176] for the inhibition percent assay at an initial single dose of 10 μM on the full NCI 60 cell panel, where the mean graph of the percent growth for all compounds on the full NCI cell panel is evaluated, compared to the untreated control cells (Supplementary Material). In vitro cell line inhibition % of all synthesised compounds is represented in (Table 1 of Supplementary Material).
(§2) All of the synthesised compounds (20) were submitted to NCI and selected for in vitro anticancer assay against a panel of 60 cancer cell lines. The methodology of assay and calculations is as reported.

SN12C = experiment: NCI one-dose screen; format: cell-based, human; conditions: Renal SN12C, 10 µM single dose
Experimental: as §1, §2

OVCAR-8 = experiment: NCI one-dose screen; format: cell-based, human; conditions: Ovarian OVCAR-8, 10 µM single dose
Experimental: as §1, §2

A549/ATCC = experiment: NCI one-dose screen; format: cell-based, human; conditions: NSCLC A549/ATCC, 10 µM single dose
Experimental: as §1, §2

UACC-62 = experiment: NCI one-dose screen; format: cell-based, human; conditions: Melanoma UACC-62, 10 µM single dose
Experimental: as §1, §2

MOLT-4 = experiment: NCI one-dose screen; format: cell-based, human; conditions: Leukemia MOLT-4, 10 µM single dose
Experimental: as §1, §2

MDA-MB-435 = experiment: NCI one-dose screen; format: cell-based, human; conditions: Melanoma MDA-MB-435, 10 µM single dose
Experimental: as §1, §2

MALME-3M = experiment: NCI one-dose screen; format: cell-based, human; conditions: Melanoma MALME-3M, 10 µM single dose
Experimental: as §1, §2

HOP-92 = experiment: NCI one-dose screen; format: cell-based, human; conditions: NSCLC HOP-92, 10 µM single dose
Experimental: as §1, §2

SR = experiment: NCI one-dose screen; format: cell-based, human; conditions: Leukemia SR, 10 µM single dose
Experimental: as §1, §2

HS 578T = experiment: NCI one-dose screen; format: cell-based, human; conditions: Breast HS 578T, 10 µM single dose
Experimental: as §1, §2

T-47D = experiment: NCI one-dose screen; format: cell-based, human; conditions: Breast T-47D, 10 µM single dose
Experimental: as §1, §2

SMILES | inhibition at 10 µM (EGFR) | % Inhibition Hela Nuclear Extracts (Hela nuclear extracts) | Growth Percent (SF-295) | Growth Percent (SN12C) | Growth Percent (OVCAR-8) | Growth Percent (A549/ATCC) | Growth Percent (UACC-62) | Growth Percent (MOLT-4) | Growth Percent (MDA-MB-435) | Growth Percent (MALME-3M) | Growth Percent (HOP-92) | Growth Percent (SR) | Growth Percent (HS 578T) | Growth Percent (T-47D) | inhibition at 0.0001 µM (EGFR; 0.1 nM compound, 10 μM ATP, read-out: % Inhibition mean, EGFR (ErbB1)) | inhibition at 0.001 µM (EGFR; 1 nM compound, 10 μM ATP, read-out: % Inhibition mean, EGFR (ErbB1)) | inhibition at 0.01 µM (EGFR; 10 nM compound, 10 μM ATP, read-out: % Inhibition mean, EGFR (ErbB1)) | inhibition at 0.1 µM (EGFR; 100 nM compound, 10 μM ATP, read-out: % Inhibition mean, EGFR (ErbB1)) | inhibition at 1 µM (EGFR; 1000 nM compound, 10 μM ATP, read-out: % Inhibition mean, EGFR (ErbB1)) | IC50 (EGFR; read-out: IC50 in enzyme assays EGFR)
Cc1c(C(=O)NCCC(=O)NO)sc2ncnc(Nc3ccc(NC(=O)Nc4cccc(C(F)(F)F)c4)cc3)c12 [Compound 11c, 1–(4-(6-((3-(hydroxyamino)-3-oxopropyl)carbamoyl)-5-methylthieno[2,3-d]pyrimidin-4-ylamino)phenyl)-3–(3-(trifluoromethyl)phenyl)urea] | 11% | 5% | 91.8% and 91.82% | 100.0% and 100.06% | 102.2% and 102.23% | 103.7% and 103.74% | 99.6% and 99.62% | 105.7% and 105.79% | 103.1% and 103.18% | 112.1% and 112.11% | 115.4% | 101.0% and 101.07% | 93.51% | 101.4% and 101.45% | – | – | – | – | – | –
Cc1c(C(=O)NCCCC(=O)NO)sc2ncnc(Nc3ccc(NC(=O)Nc4ccccc4)cc3)c12 [Compound 12a, 1–(4-(6-((4-(hydroxyamino)-4-oxobutyl)carbamoyl)-5-methylthieno[2,3-d]pyrimidin-4-ylamino)phenyl)-3-phenylurea] | 11% | 2% | 102.0% and 102.06% | 99.0% and 99.09% | 104.6% and 104.68% | 99.6% and 99.69% | 99.1% and 99.19% | 102.6% and 102.68% | 101.8% and 101.82% | 104.5% and 104.57% | 121.7% and 121.76% | 105.3% and 105.35% | 106.3% and 106.34% | 103.9% and 103.98% | – | – | – | – | – | –
COc1cccc(NC(=O)Nc2ccc(Nc3ncnc4sc(C(=O)NCCCC(=O)NO)c(C)c34)cc2)c1 [Compound 12b, 1–(4-(6-((4-(hydroxyamino)-4-oxobutyl)carbamoyl)-5-methylthieno[2,3-d]pyrimidin-4-ylamino)phenyl)-3–(3-methoxyphenyl)urea] | 5% | 3% | 102.5% and 102.51% | 104.5% and 104.52% | 103.6% and 103.67% | 105.8% and 105.84% | 95.3% and 95.39% | 104.7% and 104.76% | 100.9% | 95.2% and 95.25% | 112.3% and 112.35% | 108.2% and 108.25% | 99.2% | 97.6% and 97.69% | – | – | – | – | – | –
Cc1c(C(=O)NCCCC(=O)NO)sc2ncnc(Nc3ccc(NC(=O)Nc4cccc(C(F)(F)F)c4)cc3)c12 [Compound 12c, 1–(4-(6-((4-(hydroxyamino)-4-oxobutyl)carbamoyl)-5-methylthieno[2,3-d]pyrimidin-4-ylamino)phenyl)-3–(3-(trifluoromethyl)phenyl)urea] | 66% | 7% | 93.7% and 93.78% | 104.6% and 104.65% | 105.9% and 105.93% | 107.3% and 107.34% | 98.5% and 98.59% | 102.4% and 102.48% | 101.5% and 101.59% | 116.7% and 116.65% | 130.0% and 130.03% | 103.3% and 103.37% | 93.9% and 93.91% | 109.7% and 109.79% | 6% | 4% | 4% | 7% | 34% | 1140 nM
